Test results from patent publication US7989422B2, “Antibacterial agents” (Alchemia Limited, priority 2005, dated 2011).

Columns and labels:
Type in all cases: cell-based
[1] = system: Enterococcus faecalis ATCC 29212; assay: MIC against E. faecalis, microbroth dilution; conditions: MIC class
Method: (§1) Testing was conducted to determine the in vitro antimicrobial activity of a series of compounds synthesised by Alchemia Pty Ltd. The antimicrobial activity of each compound was determined at a single concentration (128 μg/mL) in Mueller Hinton (MH) broth against the ATCC type strain of Staphylococcus aureus. […] Compounds showing activity at concentrations up to 32-64 μg/mL in the presence/absence of serum were then tested for MIC activity against a standard set of 5 microorganisms comprising of ATCC type strains of MRSA, Enterococcus faecalis, Enterococcus faecium, VRE and Escherichia coli. CLSI (formerly NCCLS) microbroth dilution technique was used.
(§2) Each compound is initially dissolved in 100 μL of DMSO. Each solution is then diluted further in 0.9 mL of sterile MH broth to give a total volume of 1 mL (1000 μg/mL) This stock solution is then further diluted in MH broth to give a test solution with final concentration of 128 μg/mL using the following formula: 0.5 ml stock in 3.4 ml MH broth
(§3) Each test organism was subcultured from the −70° C. deep freezer onto horse blood agar. The plates were streaked to obtain isolated colonies and incubated at 35° C. in non-CO2 incubator for 24 hours. A second subculture was carried out onto horse blood agar. For each test organism, 1-2 colonies were selected from an 18-24 hour culture and inoculated into 2 ml sterile MH broth. The turbidity was adjusted to 0.5 McFarland standard.
(§4) A 1:10 dilution in MH broth (200 μL in 2 ml MH) of the 0.5 McFarland control was prepared. 5 μL of this diluted solution was used to inoculate the trays.
(§5) The trays were prepared in a similar way as mentioned above and incubated at 35° C. in a non-CO2 incubator for 18-24 hours. The plates were examined for growth after the incubation time.
(§6) After 18-24 hour incubation 5 μL from each well was then inoculated onto horse blood agar and incubated for 18-24 hours at 35° C. in a non-CO2 incubator.
(§7) If the test organism is sensitive to the compound in the broth the growth will be inhibited. Similarly, if the organism grows on the antibiotic containing medium then it is resistant to this particular antibiotic.

[2] = system: Staphylococcus aureus (MRSA) ATCC 33591; assay: MIC against MRSA, microbroth dilution; conditions: MIC class
Method: as §1, §2, §3, §4, §5, §6, §7

[3] = system: Enterococcus faecium ATCC 35667; assay: MIC against E. faecium, microbroth dilution; conditions: MIC class
Method: as §1, §2, §3, §4, §5, §6, §7

E. Faecium 51299 VanB = assay: MIC against vancomycin-resistant enterococcus 51299 (VanB), microbroth dilution; conditions: MIC class; ATCC 51299 VanB
Method: as §1, §2, §3, §4, §5, §6, §7

[4] = system: Staphylococcus aureus ATCC 25923; assay: MIC against S. aureus, microbroth dilution in MH broth, without or with 5% horse serum; conditions: MIC class; S. aureus ATCC 25923
Method: as §1, §2, §3, §4
100 μL of sterile MH broth was added in columns 2-12. 200 μL of test solution was added in column 1. 100 μL was transferred in column 2 giving a ½ dilution. 100 μL from column 2 was then transferred to column 3 (¼ dilution). This dilution was carried on until column 12. A second tray containing the same test solution was inoculated in a similar manner using sterile MH broth with 5% heat inactivated horse serum. 5 μL of organism solution was then added to each well. The plates were then sealed and incubated at 35° C. in a non-CO2 incubator for 18-24 hours. The plates were examined for growth after the incubation time.
as §7

SMILES	E. Fecalis 29212 activity [1]	S. Aureus 33591 MRSA activity [2]	E. Faecium 35667 activity [3]	E. Faecium 51299 VanB activity (E. Faecium 51299 VanB)	S. Aureus 25923 activity [4]
Nc1ccccc1OC1C(NC(=O)Nc2ccc(Cl)c(C(F)(F)F)c2)COC(CO)C1NC(=O)C(N)Cc1ccc(-c2ccccc2)cc1 (single isomer, unassigned) [Compound 70]	+ (“+”: MIC (μg/mL): 64 ≧ MIC > 16)	++ (“++”: MIC (μg/mL): MIC ≦ 16)	+ (“+”: MIC (μg/mL): 64 ≧ MIC > 16)	− (“−”: MIC (μg/mL): MIC > 64)	+ (“+”: MIC (μg/mL): 64 ≧ MIC > 16)
Nc1ccccc1OC1C(NC(=O)Nc2ccc(Cl)c(C(F)(F)F)c2)COC(CO)C1NC(=O)C(N)Cc1ccc(-c2ccccc2)cc1 (single isomer, unassigned) [Compound 71]	+ (“+”: MIC (μg/mL): 64 ≧ MIC > 16)	++ (“++”: MIC (μg/mL): MIC ≦ 16)	++ (“++”: MIC (μg/mL): MIC ≦ 16)	+ (“+”: MIC (μg/mL): 64 ≧ MIC > 16)	++ (“++”: MIC (μg/mL): MIC ≦ 16)
O=C(NC1C(CO)OCC(NS(=O)(=O)c2ccc(Cl)c(C(F)(F)F)c2)C1O)c1ccc(-c2ccc(Cl)cc2)cc1 (stereo not shown) [Compound 12]	–	–	–	–	+ (“+”: MIC (μg/mL): 64 ≧ MIC > 16)
CCCCCCCCCCNC1C(CO)OCC(NC(=O)Nc2ccc(Cl)c(C(F)(F)F)c2)C1O (stereo not shown) [Compound 50]	+ (“+”: MIC (μg/mL): 64 ≧ MIC > 16)	+ (“+”: MIC (μg/mL): 64 ≧ MIC > 16)	+ (“+”: MIC (μg/mL): 64 ≧ MIC > 16)	− (“−”: MIC (μg/mL): MIC > 64)	+ (“+”: MIC (μg/mL): 64 ≧ MIC > 16)
Nc1ccccc1OC1C(NC(=O)Nc2ccc(Cl)c(C(F)(F)F)c2)COC(CO)C1NS(=O)(=O)c1ccc(-c2ccccc2)cc1 (stereo not shown) [Compound 62]	− (“−”: MIC (μg/mL): MIC > 64)	++ (“++”: MIC (μg/mL): MIC ≦ 16)	− (“−”: MIC (μg/mL): MIC > 64)	− (“−”: MIC (μg/mL): MIC > 64)	+ (“+”: MIC (μg/mL): 64 ≧ MIC > 16)
Nc1ccccc1OC1C(NC(=O)Nc2ccc(Cl)c(C(F)(F)F)c2)COC(CO)C1NC(=O)c1ccc(-c2ccccc2)cc1 (stereo not shown) [Compound 69]	− (“−”: MIC (μg/mL): MIC > 64)	− (“−”: MIC (μg/mL): MIC > 64)	− (“−”: MIC (μg/mL): MIC > 64)	− (“−”: MIC (μg/mL): MIC > 64)	+ (“+”: MIC (μg/mL): 64 ≧ MIC > 16)
Nc1ccccc1OC1C(NC(=O)Nc2ccc(Cl)c(C(F)(F)F)c2)COC(CO)C1NC(=O)CC(N)c1ccc(-c2ccccc2)cc1 (stereo not shown) [Compound 72]	–	–	–	–	++ (“++”: MIC (μg/mL): MIC ≦ 16)
Nc1ccccc1OC1C(NS(=O)(=O)c2ccc(C(F)(F)F)cc2)COC(CO)C1NC(=O)C(N)Cc1ccc(-c2ccccc2)cc1 (stereo not shown) [Compound 79]	− (“−”: MIC (μg/mL): MIC > 64)	+ (“+”: MIC (μg/mL): 64 ≧ MIC > 16)	− (“−”: MIC (μg/mL): MIC > 64)	− (“−”: MIC (μg/mL): MIC > 64)	+ (“+”: MIC (μg/mL): 64 ≧ MIC > 16)
O=C(NC1C(CO)OCC(n2c(O)nc3cc(C(F)(F)F)cc(Cl)c32)C1O)c1ccc(-c2ccccc2)cc1 (stereo not shown) [Compound 153]	+ (“+”: MIC (μg/mL): 64 ≧ MIC > 16)	+ (“+”: MIC (μg/mL): 64 ≧ MIC > 16)	− (“−”: MIC (μg/mL): MIC > 64)	− (“−”: MIC (μg/mL): MIC > 64)	+ (“+”: MIC (μg/mL): 64 ≧ MIC > 16)
O=C(Nc1ccc(Cl)c(C(F)(F)F)c1)NC1COC(CO)C(n2c(NCc3cccc(Oc4ccccc4)c3)nc3cc(C(F)(F)F)cc(Cl)c32)C1O (stereo not shown) [Compound 258]	–	–	–	–	++ (“++”: MIC (μg/mL): MIC ≦ 16)
O=C(Nc1ccc(Cl)c(C(F)(F)F)c1)NC1COC(CO)C(n2c(NCc3ccc(-c4ccccc4)cc3)nc3cc(C(F)(F)F)cc(Cl)c32)C1O (stereo not shown) [Compound 259]	–	–	–	–	++ (“++”: MIC (μg/mL): MIC ≦ 16)
O=C(Nc1ccc(Cl)c(C(F)(F)F)c1)NC1COC(CO)C(n2c(NCc3ccc4ccccc4c3)nc3cc(C(F)(F)F)cc(Cl)c32)C1O (stereo not shown) [Compound 261]	–	–	–	–	++ (“++”: MIC (μg/mL): MIC ≦ 16)
O=S(=O)(NC1COC(CO)C(n2c(Nc3ccc(Cl)cc3)nc3cc(C(F)(F)F)ccc32)C1O)c1ccc(C(F)(F)F)cc1 (stereo not shown) [Compound 262]	–	–	–	–	+ (“+”: MIC (μg/mL): 64 ≧ MIC > 16)
O=S(=O)(NC1COC(CO)C(n2c(Nc3ccc(C(F)(F)F)cc3)nc3cc(C(F)(F)F)ccc32)C1O)c1ccc(C(F)(F)F)cc1 (stereo not shown) [Compound 263]	–	–	–	–	++ (“++”: MIC (μg/mL): MIC ≦ 16)
O=S(=O)(NC1COC(CO)C(n2c(Nc3ccc(-c4ccccc4)cc3)nc3cc(C(F)(F)F)ccc32)C1O)c1ccc(C(F)(F)F)cc1 (stereo not shown) [Compound 264]	–	–	–	–	++ (“++”: MIC (μg/mL): MIC ≦ 16)
O=S(=O)(NC1COC(CO)C(n2c(NCc3ccccc3)nc3cc(C(F)(F)F)ccc32)C1O)c1ccc(C(F)(F)F)cc1 (stereo not shown) [Compound 265]	–	–	–	–	+ (“+”: MIC (μg/mL): 64 ≧ MIC > 16)
O=S(=O)(NC1COC(CO)C(n2c(NCc3ccc(Cl)cc3)nc3cc(C(F)(F)F)ccc32)C1O)c1ccc(C(F)(F)F)cc1 (stereo not shown) [Compound 266]	–	–	–	–	++ (“++”: MIC (μg/mL): MIC ≦ 16)
CC(C)(C)c1ccc(CNc2nc3cc(C(F)(F)F)ccc3n2C2C(CO)OCC(NS(=O)(=O)c3ccc(C(F)(F)F)cc3)C2O)cc1 (stereo not shown) [Compound 267]	–	–	–	–	++ (“++”: MIC (μg/mL): MIC ≦ 16)
O=S(=O)(NC1COC(CO)C(n2c(NCc3cccc(Oc4ccccc4)c3)nc3cc(C(F)(F)F)ccc32)C1O)c1ccc(C(F)(F)F)cc1 (stereo not shown) [Compound 268]	–	–	–	–	++ (“++”: MIC (μg/mL): MIC ≦ 16)
O=S(=O)(NC1COC(CO)C(n2c(NCc3ccc(-c4ccccc4)cc3)nc3cc(C(F)(F)F)ccc32)C1O)c1ccc(C(F)(F)F)cc1 (stereo not shown) [Compound 269]	–	–	–	–	++ (“++”: MIC (μg/mL): MIC ≦ 16)
O=S(=O)(NC1COC(CO)C(n2c(NCc3ccc4ccccc4c3)nc3cc(C(F)(F)F)ccc32)C1O)c1ccc(C(F)(F)F)cc1 (stereo not shown) [Compound 270]	–	–	–	–	++ (“++”: MIC (μg/mL): MIC ≦ 16)
O=S(=O)(NC1COC(CO)C(n2c(Nc3ccc(Cl)cc3)nc3cc(C(F)(F)F)cc(Cl)c32)C1O)c1ccc(C(F)(F)F)cc1 (stereo not shown) [Compound 271]	–	–	–	–	++ (“++”: MIC (μg/mL): MIC ≦ 16)
O=S(=O)(NC1COC(CO)C(n2c(Nc3ccc(C(F)(F)F)cc3)nc3cc(C(F)(F)F)cc(Cl)c32)C1O)c1ccc(C(F)(F)F)cc1 (stereo not shown) [Compound 272]	–	–	–	–	++ (“++”: MIC (μg/mL): MIC ≦ 16)
O=S(=O)(NC1COC(CO)C(n2c(Nc3ccc(-c4ccccc4)cc3)nc3cc(C(F)(F)F)cc(Cl)c32)C1O)c1ccc(C(F)(F)F)cc1 (stereo not shown) [Compound 273]	–	–	–	–	++ (“++”: MIC (μg/mL): MIC ≦ 16)
O=S(=O)(NC1COC(CO)C(n2c(NCc3ccccc3)nc3cc(C(F)(F)F)cc(Cl)c32)C1O)c1ccc(C(F)(F)F)cc1 (stereo not shown) [Compound 274]	–	–	–	–	++ (“++”: MIC (μg/mL): MIC ≦ 16)
O=S(=O)(NC1COC(CO)C(n2c(NCc3ccc(Cl)cc3)nc3cc(C(F)(F)F)cc(Cl)c32)C1O)c1ccc(C(F)(F)F)cc1 (stereo not shown) [Compound 275]	–	–	–	–	++ (“++”: MIC (μg/mL): MIC ≦ 16)
CC(C)(C)c1ccc(CNc2nc3cc(C(F)(F)F)cc(Cl)c3n2C2C(CO)OCC(NS(=O)(=O)c3ccc(C(F)(F)F)cc3)C2O)cc1 (stereo not shown) [Compound 276]	–	–	–	–	+ (“+”: MIC (μg/mL): 64 ≧ MIC > 16)
O=S(=O)(NC1COC(CO)C(n2c(NCc3cccc(Oc4ccccc4)c3)nc3cc(C(F)(F)F)cc(Cl)c32)C1O)c1ccc(C(F)(F)F)cc1 (stereo not shown) [Compound 277]	–	–	–	–	+ (“+”: MIC (μg/mL): 64 ≧ MIC > 16)
O=S(=O)(NC1COC(CO)C(n2c(NCc3ccc(-c4ccccc4)cc3)nc3cc(C(F)(F)F)cc(Cl)c32)C1O)c1ccc(C(F)(F)F)cc1 (stereo not shown) [Compound 278]	–	–	–	–	++ (“++”: MIC (μg/mL): MIC ≦ 16)
O=S(=O)(NC1COC(CO)C(n2c(NCc3ccc4ccccc4c3)nc3cc(C(F)(F)F)cc(Cl)c32)C1O)c1ccc(C(F)(F)F)cc1 (stereo not shown) [Compound 279]	–	–	–	–	++ (“++”: MIC (μg/mL): MIC ≦ 16)
